Source: ChEMBL document CHEMBL1201862, “PubChem BioAssay data set” (2004)
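Five compound concentrations were applied to cells in 96-well plates for 48 hours; endpoints were derived by simple linear interpolation of the resulting dose-response curve. GI50 = concentration required for 50% inhibition of growth.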 Active and inactive are the calls of the source. No stated cut-off is given here; in the data, active = GI50 up to about 1.1 µM and inactive = higher.

How the values were obtained:
Assay in all cases: NCI tumour cell line growth inhibition, 48 h
786-0 = test system: 786-0
A549 = test system: A549
CCRF-CEM = test system: CCRF-CEM
COLO 205 = test system: COLO 205
HOP-92 = test system: HOP-92
K562 = test system: K562
KM12 = test system: KM12
LOX IMVI = test system: LOX IMVI
NCI-H460 = test system: NCI-H460
OVCAR-5 = test system: OVCAR-5
OVCAR-8 = test system: OVCAR-8
RXF 393 = test system: RXF 393
SF-268 = test system: SF-268
SF-539 = test system: SF-539
SK-MEL-2 = test system: SK-MEL-2
SK-OV-3 = test system: SK-OV-3
SN12C = test system: SN12C
SNB-19 = test system: SNB-19
TK-10 = test system: TK-10
UO-31 = test system: UO-31

## CCCCCC(=O)OC[n+]1cccc(-c2c(COC(=O)NC(C)C)c(COC(=O)NC(C)C)c3n2CCC3)c1
786-0
  GI50: 30.7 µM (inactive)
A549
  GI50: 70.5 µM (inactive)
CCRF-CEM
  GI50: 6.58 µM (inactive)
COLO 205
  GI50: 62.5 µM (inactive)
HOP-92
  GI50: 27.4 µM (inactive)
K562
  GI50: 37.2 µM (inactive)
KM12
  GI50: > 100 µM (inactive)
LOX IMVI
  GI50: 24 µM (inactive)
NCI-H460
  GI50: 16.6 µM (inactive)
OVCAR-5
  GI50: > 63.5 µM (inactive)
OVCAR-8
  GI50: 20.2 µM (inactive)
RXF 393
  GI50: 26.4 µM (inactive)
SF-268
  GI50: 28.5 µM (inactive)
SF-539
  GI50: 27.9 µM (inactive)
SK-MEL-2
  GI50: 26.7 µM (inactive)
SK-OV-3
  GI50: > 57.3 µM (inactive)
SN12C
  GI50: 30.6 µM (inactive)
SNB-19
  GI50: 74.3 µM (inactive)
TK-10
  GI50: > 84.1 µM (inactive)
UO-31
  GI50: 33.4 µM (inactive)

## Cc1csc2nc(-c3ccc([N+](=O)[O-])cc3)c(/C=N/N=C(N)N)n12
786-0
  GI50: 1.94 µM (inactive)
A549
  GI50: 1.84 µM (inactive)
CCRF-CEM
  GI50: 1.91 µM (inactive)
COLO 205
  GI50: 1.53 µM (inactive)
HOP-92
  GI50: < 0.01 µM (active)
K562
  GI50: 1.81 µM (inactive)
KM12
  GI50: 1.7 µM (inactive)
LOX IMVI
  GI50: 1.9 µM (inactive)
NCI-H460
  GI50: 1.79 µM (inactive)
OVCAR-5
  GI50: 1.52 µM (inactive)
OVCAR-8
  GI50: 0.716 µM (active)
RXF 393
  GI50: 1.79 µM (inactive)
SF-268
  GI50: 1.68 µM (inactive)
SF-539
  GI50: 1.85 µM (inactive)
SK-MEL-2
  GI50: 1.43 µM (inactive)
SK-OV-3
  GI50: 1.69 µM (inactive)
SN12C
  GI50: 1.71 µM (inactive)
SNB-19
  GI50: 1.92 µM (inactive)
TK-10
  GI50: 1.92 µM (inactive)
UO-31
  GI50: 1.49 µM (inactive)

## CO[C@@H]1[C@@H](OC2OC(C)C(OC3CC(C)(O)C(OC(=O)CC(C)C)C(C)O3)C(N(C)C)C2O)[C@@H](CC=O)C[C@@H](C)C(=O)/C=C/C2O[C@H]2C[C@@H](C)OC(=O)C[C@H]1OC(C)=O (stereo not given in full)
786-0
  GI50: 20 µM (inactive)
A549
  GI50: 32 µM (inactive)
CCRF-CEM
  GI50: 9.77 µM (inactive)
COLO 205
  GI50: 12.9 µM (inactive)
HOP-92
  GI50: 4.46 µM (inactive)
K562
  GI50: 12.1 µM (inactive)
KM12
  GI50: 17.3 µM (inactive)
LOX IMVI
  GI50: 15.8 µM (inactive)
NCI-H460
  GI50: 16.8 µM (inactive)
OVCAR-5
  GI50: 17.1 µM (inactive)
OVCAR-8
  GI50: 22.6 µM (inactive)
RXF 393
  GI50: 20.7 µM (inactive)
SF-268
  GI50: 79.1 µM (inactive)
SF-539
  GI50: 19.6 µM (inactive)
SK-MEL-2
  GI50: 18.8 µM (inactive)
SK-OV-3
  GI50: 39.2 µM (inactive)
SN12C
  GI50: 15.4 µM (inactive)
SNB-19
  GI50: 22 µM (inactive)
TK-10
  GI50: 24.9 µM (inactive)
UO-31
  GI50: 20.7 µM (inactive)

## CCOC(=O)C1=C(OC(OCC)C([Se]c2ccccc2)C(C)C)CCC1 (stereo not given)
786-0
  GI50: 6.82 µM (inactive)
A549
  GI50: 28.8 µM (inactive)
CCRF-CEM
  GI50: 3.44 µM (inactive)
COLO 205
  GI50: 14.7 µM (inactive)
HOP-92
  GI50: 27.5 µM (inactive)
K562
  GI50: 37 µM (inactive)
KM12
  GI50: 41.1 µM (inactive)
LOX IMVI
  GI50: 2.31 µM (inactive)
NCI-H460
  GI50: 16.9 µM (inactive)
OVCAR-5
  GI50: 22.3 µM (inactive)
OVCAR-8
  GI50: 14.1 µM (inactive)
RXF 393
  GI50: 9.46 µM (inactive)
SF-268
  GI50: 4.73 µM (inactive)
SF-539
  GI50: 12.3 µM (inactive)
SK-MEL-2
  GI50: 15.1 µM (inactive)
SK-OV-3
  GI50: 81.7 µM (inactive)
SN12C
  GI50: 10.4 µM (inactive)
SNB-19
  GI50: 27.2 µM (inactive)
TK-10
  GI50: 47 µM (inactive)
UO-31
  GI50: 24.4 µM (inactive)

## Cc1nc(Nc2ccc(Cl)cc2)sc1C(=O)Nc1cccc2c(=O)[nH][nH]c(=O)c12
786-0
  GI50: 19 µM (inactive)
A549
  GI50: 33.1 µM (inactive)
CCRF-CEM
  GI50: 16.9 µM (inactive)
COLO 205
  GI50: 16 µM (inactive)
HOP-92
  GI50: 13.3 µM (inactive)
K562
  GI50: 1.26 µM (inactive)
KM12
  GI50: 51.8 µM (inactive)
LOX IMVI
  GI50: 13.6 µM (inactive)
NCI-H460
  GI50: 25.8 µM (inactive)
OVCAR-5
  GI50: 36.9 µM (inactive)
OVCAR-8
  GI50: > 100 µM (inactive)
RXF 393
  GI50: 28.6 µM (inactive)
SF-268
  GI50: 31.8 µM (inactive)
SF-539
  GI50: 36.7 µM (inactive)
SK-MEL-2
  GI50: 30.4 µM (inactive)
SK-OV-3
  GI50: 52.6 µM (inactive)
SN12C
  GI50: 36.1 µM (inactive)
SNB-19
  GI50: 43.3 µM (inactive)
TK-10
  GI50: > 100 µM (inactive)
UO-31
  GI50: 31.8 µM (inactive)

## CCOC(=O)C(Cc1cc(OC)c(CC(C(=O)OCC)C(=O)OCC)cc1OC)C(=O)OCC
786-0
  GI50: 61.5 µM (inactive)
A549
  GI50: > 100 µM (inactive)
CCRF-CEM
  GI50: > 100 µM (inactive)
COLO 205
  GI50: > 100 µM (inactive)
HOP-92
  GI50: 26.9 µM (inactive)
K562
  GI50: > 100 µM (inactive)
KM12
  GI50: > 100 µM (inactive)
LOX IMVI
  GI50: > 100 µM (inactive)
NCI-H460
  GI50: > 100 µM (inactive)
OVCAR-5
  GI50: > 100 µM (inactive)
OVCAR-8
  GI50: > 81.1 µM (inactive)
RXF 393
  GI50: > 55.7 µM (inactive)
SF-268
  GI50: > 94.4 µM (inactive)
SF-539
  GI50: 29.2 µM (inactive)
SK-MEL-2
  GI50: > 100 µM (inactive)
SK-OV-3
  GI50: > 93.8 µM (inactive)
SN12C
  GI50: > 100 µM (inactive)
SNB-19
  GI50: > 68.5 µM (inactive)
TK-10
  GI50: > 100 µM (inactive)
UO-31
  GI50: 44 µM (inactive)

## Oc1ccc(Cn2c(-c3ccc(O)c(O)c3)nc3ccccc32)cc1O
786-0
  GI50: 9.44 µM (inactive)
A549
  GI50: 18.2 µM (inactive)
CCRF-CEM
  GI50: 3.37 µM (inactive)
COLO 205
  GI50: 17.4 µM (inactive)
HOP-92
  GI50: 6.59 µM (inactive)
K562
  GI50: 10.8 µM (inactive)
KM12
  GI50: 13.5 µM (inactive)
LOX IMVI
  GI50: 11.8 µM (inactive)
NCI-H460
  GI50: 15.8 µM (inactive)
OVCAR-5
  GI50: 38.1 µM (inactive)
OVCAR-8
  GI50: 7.76 µM (inactive)
RXF 393
  GI50: 29.4 µM (inactive)
SF-268
  GI50: 11.5 µM (inactive)
SF-539
  GI50: 7.45 µM (inactive)
SK-MEL-2
  GI50: 18.4 µM (inactive)
SK-OV-3
  GI50: 18.6 µM (inactive)
SN12C
  GI50: 10.1 µM (inactive)
SNB-19
  GI50: 9.2 µM (inactive)
TK-10
  GI50: 9.64 µM (inactive)
UO-31
  GI50: 10.8 µM (inactive)
